Results from PubChem BioAssay AID248 (DTP/NCI, 2004).
“And” between values parts separate entries of the source, which are not always exact repeats. Identical values can stand only once. Toxic doses and inconclusive results are not listed.

System: L1210 leukemia ip in BDF1 mice, survival T/C
Assay: NCI In Vivo Anticancer Drug Screen. Data for tumor model L1210 Leukemia (intraperitoneal) in B6D2F1 (BDF1) mice
Details: endpoint: mean survival time, higher = longer survival
Summary of the method: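 Tumor cells were implanted, animals were treated, and survival was followed. The result divides the treated measurement by the vehicle-control measurement.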

[1] = dose: 100.0 mg/kg/injection, schedule: Q01DX009 (ip), vehicle: Klucel (hydroxypropylcellulose) (HPC)
[2] = dose: 100.0 mg/kg/injection, schedule: Q04DX003 (ip), vehicle: Klucel (hydroxypropylcellulose) (HPC)
[3] = dose: 200.0 mg/kg/injection, schedule: Q01DX009 (ip), vehicle: Klucel (hydroxypropylcellulose) (HPC)
[4] = dose: 200.0 mg/kg/injection, schedule: Q04DX003 (ip), vehicle: Klucel (hydroxypropylcellulose) (HPC)
[5] = dose: 400.0 mg/kg/injection, schedule: Q04DX003 (ip), vehicle: Klucel (hydroxypropylcellulose) (HPC)
[6] = dose: 100.0 mg/kg/injection, schedule: Q01DX001 (ip), vehicle: carboxymethylcellulose (CMC)
[7] = dose: 200.0 mg/kg/injection, schedule: Q01DX001 (ip), vehicle: carboxymethylcellulose (CMC)
[8] = dose: 400.0 mg/kg/injection, schedule: Q01DX001 (ip), vehicle: carboxymethylcellulose (CMC)
[9] = dose: 100.0 mg/kg/injection, schedule: Q01DX001 (ip), vehicle: saline
[10] = dose: 200.0 mg/kg/injection, schedule: Q01DX001 (ip), vehicle: saline
[11] = dose: 400.0 mg/kg/injection, schedule: Q01DX001 (ip), vehicle: saline
[12] = dose: 100.0 mg/kg/injection, schedule: Q01DX001 (ip), vehicle: other
[13] = dose: 200.0 mg/kg/injection, schedule: Q01DX001 (ip), vehicle: other
[14] = dose: 400.0 mg/kg/injection, schedule: Q01DX001 (ip), vehicle: other

In the case of `Clc1cc(Cl)c2c(c1)Cc1cc(Cl)cc(N=Cc3ccc4c(c3)OCO4)c1-2`, the T/C [1] is reported as 97 % of control, the T/C [2] is reported as 97 % of control and the T/C [3] is reported as 99 % of control. The T/C [4] was 97 % of control and the T/C [5] was 104 % of control.

In the case of `O=C(O)CCCc1nc2ccccc2c(=O)[nH]1`, the T/C (dose: 44.0 mg/kg/injection, schedule: Q01DX001 (ip), vehicle: carboxymethylcellulose (CMC)) is reported as 101 % of control and 103 % of control, the T/C (dose: 50.0 mg/kg/injection, schedule: Q01DX001 (ip), vehicle: carboxymethylcellulose (CMC)) is reported as 108 % of control and the T/C (dose: 66.0 mg/kg/injection, schedule: Q01DX001 (ip), vehicle: carboxymethylcellulose (CMC)) is reported as 98 % of control and 103 % of control. The T/C [6] was 98 % of control and 100 % of control, the T/C (dose: 150.0 mg/kg/injection, schedule: Q01DX001 (ip), vehicle: carboxymethylcellulose (CMC)) was 93 % of control and 100 % of control and the T/C [7] was 106 % of control. The T/C [8] was 101 % of control.

With `CC1C(=O)c2cc3c(cc2CCN(C)Cc2c1ccc1c2OCO1)OCO3` (stereo unspecified) the T/C (dose: 5.0 mg/kg/injection, schedule: Q01DX001 (ip), vehicle: saline) was 103 % of control, the T/C (dose: 9.5 mg/kg/injection, schedule: Q01DX001 (ip), vehicle: other) was 93 % of control and the T/C (dose: 10.0 mg/kg/injection, schedule: Q01DX001 (ip), vehicle: saline) was 103 % of control. The T/C (dose: 19.0 mg/kg/injection, schedule: Q01DX001 (ip), vehicle: other) was 104 % of control, the T/C (dose: 20.0 mg/kg/injection, schedule: Q01DX001 (ip), vehicle: saline) was 101 % of control and the T/C (dose: 40.0 mg/kg/injection, schedule: Q01DX001 (ip), vehicle: saline) was 101 % of control.

`CN(C)P(N(C)C)N(C)C` was tested, and the T/C (dose: 50.0 mg/kg/injection, schedule: Q01DX001 (ip), vehicle: saline) was 104 % of control, the T/C [9] was 95 % of control and the T/C [10] was 93 % of control. For the same compound, the T/C [11] was 101 % of control.

For `Cc1cccc(N(CCOC(=O)Nc2ccc(Cl)cc2)CCOC(=O)Nc2ccc(Cl)cc2)c1`, the T/C [9] was 94 % of control, the T/C [10] was 94 % of control and the T/C [11] was 96 % of control.

For `OC(CCl)CNc1ccc(-c2ccccc2)cc1` (stereo unspecified), the T/C [12] was 94 % of control, the T/C [2] was 100 % of control and the T/C [13] was 92 % of control. For the same compound, the T/C [4] was 86 % of control and the T/C [14] was 97 % of control.

`CCOC(=O)NC1Cc2cc(C)cc(C)c21` (stereo unspecified) was tested, and the T/C (dose: 10.0 mg/kg/injection, schedule: Q04DX002 (ip), vehicle: Klucel (hydroxypropylcellulose) (HPC)) was 120 % of control, the T/C (dose: 20.0 mg/kg/injection, schedule: Q04DX002 (ip), vehicle: Klucel (hydroxypropylcellulose) (HPC)) was 100 % of control and the T/C (dose: 40.0 mg/kg/injection, schedule: Q04DX002 (ip), vehicle: Klucel (hydroxypropylcellulose) (HPC)) was 103 % of control.

For `Nc1ccc2cn[nH]c2c1`, the T/C (dose: 50.0 mg/kg/injection, schedule: Q04DX002 (ip), vehicle: saline with Tween-80) was 100 % of control, the T/C (dose: 100.0 mg/kg/injection, schedule: Q01DX009 (ip), vehicle: water) was 104 % of control and the T/C (dose: 100.0 mg/kg/injection, schedule: Q04DX002 (ip), vehicle: saline with Tween-80) was 100 % of control. The T/C (dose: 100.0 mg/kg/injection, schedule: Q04DX003 (ip), vehicle: water) was 96 % of control, the T/C (dose: 200.0 mg/kg/injection, schedule: Q01DX009 (ip), vehicle: water) was 111 % of control and the T/C (dose: 200.0 mg/kg/injection, schedule: Q04DX002 (ip), vehicle: saline with Tween-80) was 106 % of control. For the same compound, the T/C (dose: 200.0 mg/kg/injection, schedule: Q04DX003 (ip), vehicle: water) was 94 % of control and the T/C (dose: 400.0 mg/kg/injection, schedule: Q04DX003 (ip), vehicle: water) was 100 % of control.

`CN(C)S(=O)(=O)c1ccc(NC(=O)C(Cl)(Cl)Cl)cc1` was tested, and the T/C [12] was 104 % of control, the T/C [1] was 94 % of control and the T/C (dose: 100.0 mg/kg/injection, schedule: Q04DX003 (ip), vehicle: other) was 101 % of control. The T/C [13] was 96 % of control, the T/C [3] was 92 % of control and the T/C (dose: 200.0 mg/kg/injection, schedule: Q04DX003 (ip), vehicle: other) was 95 % of control. The T/C [14] was 98 % of control and the T/C (dose: 400.0 mg/kg/injection, schedule: Q04DX003 (ip), vehicle: other) was 93 % of control.

For `Cc1ccc(NC(=O)c2cc3ccccc3cc2O)c(C)c1`, the T/C [12] was 92 % of control, the T/C [2] was 100 % of control and the T/C [13] was 92 % of control. For the same compound, the T/C [4] was 94 % of control, the T/C [14] was 92 % of control and the T/C [5] was 105 % of control.

For `CC(=O)N1Cc2ccc(C=O)n2Cc2cc3c(cc21)OCO3`, the T/C (dose: 25.0 mg/kg/injection, schedule: Q04DX002 (ip), vehicle: Klucel (hydroxypropylcellulose) (HPC)) was 96 % of control, the T/C (dose: 50.0 mg/kg/injection, schedule: Q04DX002 (ip), vehicle: Klucel (hydroxypropylcellulose) (HPC)) was 104 % of control and the T/C (dose: 100.0 mg/kg/injection, schedule: Q04DX002 (ip), vehicle: Klucel (hydroxypropylcellulose) (HPC)) was 110 % of control.

`NS(=O)(=O)c1ccc(NC(=O)Nc2ccccc2)cc1` was tested, and the T/C [1] was 92 % of control and the T/C [3] was 97 % of control.

In the case of `O=C(Nc1ccc(F)cc1)Oc1ccc(OCc2ccccc2)cc1`, the T/C [6] is reported as 95 % of control, the T/C (dose: 100.0 mg/kg/injection, schedule: Q01DX009 (ip), vehicle: carboxymethylcellulose (CMC)) is reported as 99 % of control and 103 % of control and the T/C (dose: 100.0 mg/kg/injection, schedule: Q04DX002 (ip), vehicle: carboxymethylcellulose (CMC)) is reported as 93 % of control and 98 % of control. For the same compound, the T/C [7] was 101 % of control, the T/C (dose: 200.0 mg/kg/injection, schedule: Q01DX009 (ip), vehicle: carboxymethylcellulose (CMC)) was 95 % of control and 99 % of control and the T/C (dose: 200.0 mg/kg/injection, schedule: Q04DX002 (ip), vehicle: carboxymethylcellulose (CMC)) was 98 % of control and 100 % of control. For the same compound, the T/C [8] was 101 % of control, the T/C (dose: 400.0 mg/kg/injection, schedule: Q01DX009 (ip), vehicle: carboxymethylcellulose (CMC)) was 95 % of control and 91 % of control and the T/C (dose: 400.0 mg/kg/injection, schedule: Q04DX002 (ip), vehicle: carboxymethylcellulose (CMC)) was 96 % of control and 100 % of control.

`C[NH-].C[NH-].[Br][Pt+2][Br]` was tested, and the T/C (dose: 0.62 mg/kg/injection, schedule: Q01DX009 (ip), vehicle: water) was 118 % of control and 123 % of control, the T/C (dose: 1.5 mg/kg/injection, schedule: Q01DX001 (ip), vehicle: other) was 108 % of control and the T/C (dose: 1.5 mg/kg/injection, schedule: Q01DX009 (ip), vehicle: other) was 115 % of control. For the same compound, the T/C (dose: 2.0 mg/kg/injection, schedule: Q01DX009 (ip), vehicle: other) was 161 % of control, the T/C (dose: 3.0 mg/kg/injection, schedule: Q01DX001 (ip), vehicle: other) was 117 % of control and the T/C (dose: 3.0 mg/kg/injection, schedule: Q01DX005 (ip), vehicle: saline with Tween-80) was 105 % of control. The T/C (dose: 3.0 mg/kg/injection, schedule: Q01DX009 (ip), vehicle: other) was 153 % of control, the T/C (dose: 4.5 mg/kg/injection, schedule: Q01DX009 (ip), vehicle: other) was 95 % of control and the T/C (dose: 5.0 mg/kg/injection, schedule: Q01DX009 (ip), vehicle: water) was 98 % of control. For the same compound, the T/C (dose: 6.0 mg/kg/injection, schedule: Q01DX001 (ip), vehicle: other) was 117 % of control, the T/C (dose: 6.0 mg/kg/injection, schedule: Q01DX009 (ip), vehicle: other) was 98 % of control and the T/C (dose: 10.0 mg/kg/injection, schedule: Q01DX009 (ip), vehicle: water) was 115 % of control. The T/C (dose: 25.0 mg/kg/injection, schedule: Q01DX001 (ip), vehicle: other) was 124 % of control and the T/C (dose: 50.0 mg/kg/injection, schedule: Q01DX001 (ip), vehicle: other) was 95 % of control.

For `NC(=N\C1=NCCO1)/C(N)=N/C1=NCCO1`, the T/C (dose: 100.0 mg/kg/injection, schedule: Q04DX003 (ip), vehicle: saline) was 109 % of control, the T/C (dose: 200.0 mg/kg/injection, schedule: Q04DX003 (ip), vehicle: saline) was 107 % of control and the T/C (dose: 400.0 mg/kg/injection, schedule: Q04DX003 (ip), vehicle: saline) was 97 % of control.

`Fc1c(F)c(F)c(Oc2c(F)c(F)c(F)c(F)c2Oc2c(F)c(F)c(F)c(F)c2F)c(F)c1F` was tested, and the T/C (dose: 10.0 mg/kg/injection, schedule: Q01DX009 (ip), vehicle: Klucel (hydroxypropylcellulose) (HPC)) was 96 % of control, the T/C (dose: 25.0 mg/kg/injection, schedule: Q01DX009 (ip), vehicle: Klucel (hydroxypropylcellulose) (HPC)) was 96 % of control and the T/C (dose: 37.5 mg/kg/injection, schedule: Q01DX009 (ip), vehicle: Klucel (hydroxypropylcellulose) (HPC)) was 98 % of control. For the same compound, the T/C (dose: 150.0 mg/kg/injection, schedule: Q01DX009 (ip), vehicle: Klucel (hydroxypropylcellulose) (HPC)) was 97 % of control and the T/C (dose: 300.0 mg/kg/injection, schedule: Q01DX009 (ip), vehicle: Klucel (hydroxypropylcellulose) (HPC)) was 99 % of control.
